Source: paper PMC6522930, “Design, synthesis and biological activity evaluation of a new class of 2,4-thiazolidinedione compounds as insulin enhancers” (Journal of Enzyme Inhibition and Medicinal Chemistry, 2019)

System: healthy mice
Experiment: Oral glucose tolerance test
Type: in vivo
Conditions: 10 mg kg^−1 d^−1 oral for 10 d, 1 h after sugar load
Description: In vivo experiments, glucose tolerance test, insulin tolerance test, cell survival experiment and acute toxicity were used as the test indicators (Tables 2, [3] and [4]). In Table 2, we chose dose 10 mg kg^−1 d^−1 and used oral administration. […] The mice were given the drug for 10 d, blood was collected from the tail vein of the mice before and after the sugar load for 1 h and 2 h, and the blood glucose level of the mice before and after the sugar load was measured by the glucometer.
(§1) (1) Glucose tolerance test: The healthy mice (20 ± 2 g) were selected. After 1 week of acclimation, mice with no body surface damage, good general condition and flexible reaction were selected for the experiment. The test compounds were dissolved with DMSO, and were given a dose volume of 0.2 ml 10 g^−1, and a dose of 10 mg kg^−1, and given by gavage (oral) once a day. […] The mice were given the drug for 10 d, and after the last dose, the mice fasted for 12 h. The next day, blood was collected from the tail vein of the mice before and after the sugar load for 1 h and 2 h, and the blood glucose level of the mice before and after the sugar load was measured by the glucometer. […] The 12 h of fasting after the last administration, blood was taken from the orbital venous plexus (used to measure the blood glucose level after fasting). Each group was immediately given a subcutaneous injection of 0.2 μg kg^−1 of insulin. After 1 h and 2 h of injection, blood was taken again. (3) Cell survival experiment: The HUVEC cells were inoculated on the 96-well plate at the initial concentration of 3 × 10^3 cells/holes, and 100 μl RPMI 1640 medium were added to each hole. At 5% CO2 and 37 °C cell cultivation in 24 h, every pore solution in different concentrations. […] And determine the hole under 460 nm wavelength absorbance value (A).

Which “Blood glucose levels 1 h” value does the source give for CN(CCOc1ccc(CC2SC(=O)NC2=O)cc1)c1ccccn1 (stereo not shown) [Rosiglitazone, reference compound] here?
The value was 6.351 ± 2.004 mmol/L.

For Cc1ccc(C(=O)NCCOc2ccc(CC3SC(=O)NC3=O)nc2)cc1 (stereo not shown) [Compound 6f, N-(2-((6-((2,4-dioxothiazolidin-5-yl)methyl)pyridin-3-yl)oxy)ethyl)-4-methylbenzamide], which “Blood glucose levels 1 h” value is on record?
Its value is 6.651 ± 2.413 mmol/L.

Same assay, conditions: 10 mg kg^−1 d^−1 oral for 10 d, 2 h after sugar load

For CN(CCOc1ccc(CC2SC(=O)NC2=O)cc1)c1ccccn1 (stereo not shown) [Rosiglitazone, reference compound], which “Blood glucose levels 2 h” value is on record?
The value was 3.654 ± 1.232 mmol/L.

Which “Blood glucose levels 2 h” value does the source give for Cc1ccc(C(=O)NCCOc2ccc(CC3SC(=O)NC3=O)nc2)cc1 (stereo not shown) [Compound 6f, N-(2-((6-((2,4-dioxothiazolidin-5-yl)methyl)pyridin-3-yl)oxy)ethyl)-4-methylbenzamide] here?
The value was 4.121 ± 1.922 mmol/L.

Same assay, conditions: 10 mg kg^−1 d^−1 oral for 10 d, fasted 12 h, before sugar load

For CN(CCOc1ccc(CC2SC(=O)NC2=O)cc1)c1ccccn1 (stereo not shown) [Rosiglitazone, reference compound], which “Blood glucose levels 0 h” value is on record?
Its value is 3.265 ± 0.345 mmol/L.

Which “Blood glucose levels 0 h” value does the source give for Cc1ccc(C(=O)NCCOc2ccc(CC3SC(=O)NC3=O)nc2)cc1 (stereo not shown) [Compound 6f, N-(2-((6-((2,4-dioxothiazolidin-5-yl)methyl)pyridin-3-yl)oxy)ethyl)-4-methylbenzamide] here?
Its value is 3.216 ± 0.315 mmol/L.

Same assay, conditions: 10 mg kg^−1 d^−1 oral, 10 d

With Cc1ccc(C(=O)NCCOc2ccc(CC3SC(=O)NC3=O)nc2)cc1 (stereo not shown) [Compound 6f, N-(2-((6-((2,4-dioxothiazolidin-5-yl)methyl)pyridin-3-yl)oxy)ethyl)-4-methylbenzamide] as the compound, how does the “Effect in glucose tolerance test (in words)” value read?
Its value is “good resistance activation to glucose”.

System: not listed separately
Experiment: Acute toxicity test (LD50)
Type: in vivo
Conditions: oral administration; n ≥ 3

With CN(CCOc1ccc(CC2SC(=O)NC2=O)cc1)c1ccccn1 (stereo not shown) [Rosiglitazone, reference compound] as the compound, how does the “LD50 ± SD” value read?
Its value is 2246.1 ± 1.56 mg/kg.

With Cc1ccc(C(=O)NCCOc2ccc(CC3SC(=O)NC3=O)nc2)cc1 (stereo not shown) [Compound 6f, N-(2-((6-((2,4-dioxothiazolidin-5-yl)methyl)pyridin-3-yl)oxy)ethyl)-4-methylbenzamide] as the compound, how does the “LD50 ± SD” value read?
Its value is 2013.6 ± 1.43 mg/kg.

Biological target: T1, PPARγ (Homo sapiens, UniProt P37231)
T1 construct: expressed in transfected cells
T1 sequence (P37231 1-505): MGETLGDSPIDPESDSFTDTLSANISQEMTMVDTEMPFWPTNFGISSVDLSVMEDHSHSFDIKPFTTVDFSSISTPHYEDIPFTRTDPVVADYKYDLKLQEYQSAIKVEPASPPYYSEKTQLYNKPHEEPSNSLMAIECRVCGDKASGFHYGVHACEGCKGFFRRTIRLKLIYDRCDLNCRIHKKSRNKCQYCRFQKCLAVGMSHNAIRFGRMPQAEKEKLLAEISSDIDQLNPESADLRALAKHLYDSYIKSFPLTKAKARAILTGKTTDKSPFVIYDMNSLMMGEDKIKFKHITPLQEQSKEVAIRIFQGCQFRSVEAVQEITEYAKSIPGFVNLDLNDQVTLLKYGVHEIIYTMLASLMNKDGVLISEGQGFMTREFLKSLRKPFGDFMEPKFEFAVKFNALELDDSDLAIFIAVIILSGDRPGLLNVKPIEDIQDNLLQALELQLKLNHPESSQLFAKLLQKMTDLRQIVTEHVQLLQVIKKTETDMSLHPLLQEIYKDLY
Experiment: In vitro activation of PPARγ (cells containing PPAR, EC50)
Type: cell-based
Conditions: n ≥ 8; 24 h; read-out: EC50 ± SD PPARγ
Description: According to the literature, the cells containing PPAR (α, β and γ) were obtained and transfected into 96-well plates the day before for cells culture. Transfection was performed according to the instructions of human PPAR enzyme-linked immunoassay. […] After 24 h, the drugs were added, and 20 μl of MTT was added to each well for another 6 h, and the cell liquid was collected by removing the culture medium, and 150 μl of DMSO was added to each hole. And the absorbance value (A) of each hole was measured under the wavelength of 460 nm.

Which EC50 does the source give for Cc1ccc(C(=O)NCCOc2ccc(CC3SC(=O)NC3=O)nc2)cc1 (stereo not shown) [Compound 6f, N-(2-((6-((2,4-dioxothiazolidin-5-yl)methyl)pyridin-3-yl)oxy)ethyl)-4-methylbenzamide] here?
Its EC50 is 100 ± 100 nM.

System: healthy mice
Experiment: Insulin tolerance test (blood glucose under insulin load)
Type: in vivo
Conditions: 10 mg kg^−1 d^−1
Description: as §1

With Cc1ccc(C(=O)NCCOc2ccc(CC3SC(=O)NC3=O)nc2)cc1 (stereo not shown) [Compound 6f, N-(2-((6-((2,4-dioxothiazolidin-5-yl)methyl)pyridin-3-yl)oxy)ethyl)-4-methylbenzamide] as the compound, how does the “Effect in insulin tolerance test (in words)” value read?
The value was “good resistance activation to insulin”.

Same assay, conditions: 10 mg kg^−1 d^−1 for 15 d, 1 h after s.c. insulin 0.2 μg kg^−1

Which “Blood glucose levels 1 h” value does the source give for Cc1ccc(C(=O)NCCOc2ccc(CC3SC(=O)NC3=O)nc2)cc1 (stereo not shown) [Compound 6f, N-(2-((6-((2,4-dioxothiazolidin-5-yl)methyl)pyridin-3-yl)oxy)ethyl)-4-methylbenzamide] here?
Its value is 1.903 ± 0.611 mmol/L.

Same assay, conditions: 10 mg kg^−1 d^−1 for 15 d, 2 h after s.c. insulin 0.2 μg kg^−1

Which “Blood glucose levels 2 h” value does the source give for Cc1ccc(C(=O)NCCOc2ccc(CC3SC(=O)NC3=O)nc2)cc1 (stereo not shown) [Compound 6f, N-(2-((6-((2,4-dioxothiazolidin-5-yl)methyl)pyridin-3-yl)oxy)ethyl)-4-methylbenzamide] here?
The value was 2.602 ± 1.143 mmol/L.

Same assay, conditions: 10 mg kg^−1 d^−1 for 15 d, fasted 12 h, before insulin

Which “Blood glucose levels 0 h” value does the source give for Cc1ccc(C(=O)NCCOc2ccc(CC3SC(=O)NC3=O)nc2)cc1 (stereo not shown) [Compound 6f, N-(2-((6-((2,4-dioxothiazolidin-5-yl)methyl)pyridin-3-yl)oxy)ethyl)-4-methylbenzamide] here?
The value was 5.714 ± 1.465 mmol/L.

System: HUVEC cells
Experiment: Cell survival experiment (cytotoxicity)
Type: cell-based
Conditions: 10^−3–10^−2 mol L^−1
Description: as §1

With Cc1ccc(C(=O)NCCOc2ccc(CC3SC(=O)NC3=O)nc2)cc1 (stereo not shown) [Compound 6f, N-(2-((6-((2,4-dioxothiazolidin-5-yl)methyl)pyridin-3-yl)oxy)ethyl)-4-methylbenzamide] as the compound, how does the “Cytotoxic effect (in words)” value read?
Its value is “no obvious cytotoxic effect”.

Same assay, conditions: HUVEC cells, 10^−2 mol l^−1

With Cc1ccc(C(=O)NCCOc2ccc(CC3SC(=O)NC3=O)nc2)cc1 (stereo not shown) [Compound 6f, N-(2-((6-((2,4-dioxothiazolidin-5-yl)methyl)pyridin-3-yl)oxy)ethyl)-4-methylbenzamide] as the compound, how does the Cell survival rate read?
The Cell survival rate was 89.6 ± 1.34%.

Same assay, conditions: HUVEC cells, 10^−3 mol l^−1

For Cc1ccc(C(=O)NCCOc2ccc(CC3SC(=O)NC3=O)nc2)cc1 (stereo not shown) [Compound 6f, N-(2-((6-((2,4-dioxothiazolidin-5-yl)methyl)pyridin-3-yl)oxy)ethyl)-4-methylbenzamide], which Cell survival rate is on record?
Its Cell survival rate is 98.3 ± 0.45%.

Same assay, conditions: HUVEC cells, 10^−4 mol l^−1

With Cc1ccc(C(=O)NCCOc2ccc(CC3SC(=O)NC3=O)nc2)cc1 (stereo not shown) [Compound 6f, N-(2-((6-((2,4-dioxothiazolidin-5-yl)methyl)pyridin-3-yl)oxy)ethyl)-4-methylbenzamide] as the compound, how does the Cell survival rate read?
The Cell survival rate was 99.2 ± 0.31%.

Same assay, conditions: HUVEC cells, 10^−5 mol l^−1

With Cc1ccc(C(=O)NCCOc2ccc(CC3SC(=O)NC3=O)nc2)cc1 (stereo not shown) [Compound 6f, N-(2-((6-((2,4-dioxothiazolidin-5-yl)methyl)pyridin-3-yl)oxy)ethyl)-4-methylbenzamide] as the compound, how does the Cell survival rate read?
Its Cell survival rate is 99.8 ± 0.09%.

Same assay, conditions: HUVEC cells, 10^−6 mol l^−1

Which Cell survival rate does the source give for Cc1ccc(C(=O)NCCOc2ccc(CC3SC(=O)NC3=O)nc2)cc1 (stereo not shown) [Compound 6f, N-(2-((6-((2,4-dioxothiazolidin-5-yl)methyl)pyridin-3-yl)oxy)ethyl)-4-methylbenzamide] here?
The Cell survival rate was 100%.

System: not listed separately
Experiment: Dissociation degree (pKa)
Type: physicochemical
Conditions: not given
Excerpt: (§2) Drug in vitro experiment was one of the basic contents to evaluate drugs activity, and it was a necessary approach to research drugs. Drugs’ efficacy was often affected by some physical and chemical properties of compounds, such as lipid–water partition coefficient (log p), and dissociation degree (pKa). […] In Table 1, we could find that target compounds were fat-soluble. The fat-soluble compounds were favourable for drugs absorption, and drugs were easy to enter the cells. […] The pKa will affect the absorption and delivery of the drugs, different environmental (acid and alkalinity) medicine may be different, sometimes exists in the form of ions, sometimes exists in the form of molecules. Usually in the form of ion drugs has no effect. Therefore, it was necessary to study the dissociation degree (pKa) of drugs to study the pharmacodynamics. […] After the physical and chemical properties were studied, the biological activity was studied. […] After that, the target compounds 6a, 6e, 6f, 6g and 6i had good biological activity and were preliminarily screened out for further study on PPARγ receptor agonist activity (Figure 5).

For Cc1ccc(C(=O)NCCOc2ccc(CC3SC(=O)NC3=O)nc2)cc1 (stereo not shown) [Compound 6f, N-(2-((6-((2,4-dioxothiazolidin-5-yl)methyl)pyridin-3-yl)oxy)ethyl)-4-methylbenzamide], which pKa is on record?
Its pKa is 9.65.

System: not listed separately
Experiment: Lipid–water partition coefficient (log p)
Type: physicochemical
Conditions: not given
Excerpt: as §2

With Cc1ccc(C(=O)NCCOc2ccc(CC3SC(=O)NC3=O)nc2)cc1 (stereo not shown) [Compound 6f, N-(2-((6-((2,4-dioxothiazolidin-5-yl)methyl)pyridin-3-yl)oxy)ethyl)-4-methylbenzamide] as the compound, how does the logP read?
Its logP is 2.56.
